For data set [1] the following is noted: in vivo.
Data set [2] can be described thus: Bioavailability. Particulars: stated in words, Example 1.
Data set [3] can be described thus: Stability (in water and acidic solutions). Particulars: stated in words, Example 1.
Data set [4] has as its target T1, ATP citrate lyase (Homo sapiens, UniProt P53396).
T1 sequence (P53396 1-1101): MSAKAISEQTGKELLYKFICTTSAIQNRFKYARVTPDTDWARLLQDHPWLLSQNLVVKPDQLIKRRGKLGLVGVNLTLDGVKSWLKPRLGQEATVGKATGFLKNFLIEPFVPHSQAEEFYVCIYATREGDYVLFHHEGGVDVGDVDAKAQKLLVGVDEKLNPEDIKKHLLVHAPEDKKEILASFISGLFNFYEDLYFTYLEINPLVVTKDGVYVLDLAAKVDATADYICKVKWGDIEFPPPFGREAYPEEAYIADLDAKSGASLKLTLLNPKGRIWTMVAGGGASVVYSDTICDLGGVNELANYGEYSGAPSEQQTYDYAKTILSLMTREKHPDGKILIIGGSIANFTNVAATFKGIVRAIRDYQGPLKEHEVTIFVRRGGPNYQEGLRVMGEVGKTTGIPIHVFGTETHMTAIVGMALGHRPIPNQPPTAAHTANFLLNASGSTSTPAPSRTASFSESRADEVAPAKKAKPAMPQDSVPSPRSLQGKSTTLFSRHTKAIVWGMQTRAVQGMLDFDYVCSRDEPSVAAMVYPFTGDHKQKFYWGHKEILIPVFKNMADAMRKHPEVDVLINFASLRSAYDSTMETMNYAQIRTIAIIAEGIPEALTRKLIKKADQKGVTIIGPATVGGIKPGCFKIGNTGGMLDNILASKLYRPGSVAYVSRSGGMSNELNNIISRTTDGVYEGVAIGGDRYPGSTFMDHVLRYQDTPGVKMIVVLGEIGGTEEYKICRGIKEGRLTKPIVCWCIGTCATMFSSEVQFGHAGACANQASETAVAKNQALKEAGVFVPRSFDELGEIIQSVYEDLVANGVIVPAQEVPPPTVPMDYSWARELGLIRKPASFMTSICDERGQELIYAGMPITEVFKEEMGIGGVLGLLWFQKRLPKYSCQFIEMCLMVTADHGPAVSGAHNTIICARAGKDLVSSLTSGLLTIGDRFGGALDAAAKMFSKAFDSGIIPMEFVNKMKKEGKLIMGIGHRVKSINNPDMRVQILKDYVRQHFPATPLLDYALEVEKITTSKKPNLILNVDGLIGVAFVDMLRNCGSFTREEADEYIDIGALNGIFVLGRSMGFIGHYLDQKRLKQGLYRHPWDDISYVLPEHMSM
Particulars: cited from earlier work.

The conditions of data set [5]: daily doses of about 20 g of creatine for 5-7 days; cited from earlier work.

Read-outs that look alike come from different tables or passages of the source.

Results on five compounds are retold here after US7772428B2, “Creatine hydroxycitric acids salts and methods for their production and use in individuals” (Northern Innovations and Formulations, priority 2005, dated 2010).

`CN(CC(=O)O)C(=N)N.O.O=C([O-])CC(O)(C(=O)[O-])C(O)C(=O)O.[K+].[K+]` (stereo not shown) [(Mono)-creatine dipotassium hydroxycitrate monohydrate]: the bioavailability result in data set [1] is “bioavailable”. Consider `CN(CC(=O)O)C(=N)N.CN(CC(=O)O)C(=N)N.O.O=C(O)CC(O)(C(=O)O)C(O)C(=O)[O-].[K+]` (stereo not shown) [Dicreatine (mono) potassium hydroxycitrate monohydrate], for which, in data set [2], the bioavailability entry is “bioavailable”. The stability result in data set [3] is recorded as “stable”. For `O=C(O)CC(O)(C(=O)O)C(O)C(=O)O` (stereo not shown) [Hydroxycitric acid], the “activity of ATP citrate lyase” value in data set [4] is reported as “inhibit”. Regarding `CN(CC(=O)O)C(=N)N` [creatine], the “increase of total creatine content in the muscle” value in data set [5] is 10-25%. Take Tricreatine hydroxycitrate monohydrate: the bioavailability entry in data set [2] was “bioavailable”. Moreover, in data set [3], the stability result was “stable”.
